Tests used:
Settings in all cases: average where tested multiple times
[1] = target: T1, BCAT2 (Homo sapiens, UniProt O15382); assay: BCAT2 in vitro enzyme inhibition assay (resazurin/diaphorase-coupled fluorescence); format: biochemical
T1 sequence (O15382 28-392): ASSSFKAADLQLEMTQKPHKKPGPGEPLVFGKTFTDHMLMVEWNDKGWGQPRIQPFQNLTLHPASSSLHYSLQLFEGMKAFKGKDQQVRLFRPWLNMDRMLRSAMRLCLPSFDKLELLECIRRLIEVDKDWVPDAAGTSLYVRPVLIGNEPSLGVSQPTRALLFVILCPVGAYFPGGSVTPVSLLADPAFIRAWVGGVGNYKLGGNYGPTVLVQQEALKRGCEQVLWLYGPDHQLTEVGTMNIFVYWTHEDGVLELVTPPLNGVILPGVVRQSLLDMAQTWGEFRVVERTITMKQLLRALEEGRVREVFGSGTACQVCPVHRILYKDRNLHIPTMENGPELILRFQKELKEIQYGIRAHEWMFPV
In short: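 Coupled fluorescence readout: glutamate formed from L-leucine/α-ketoglutarate transamination drives GDH/NAD/diaphorase reduction of resazurin (Ex 540/Em 590). Human BCAT2 was first exposed 1 h at room temperature to compound, top final 100 μM in 3-fold, 10-point series; substrate reaction ran 1 h before SDS quench, in technical duplicate with DMSO max and enzyme-free min controls.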

[2] = target: T2, hBCAT1 (Homo sapiens, UniProt P54687); assay: BCAT1 in vitro enzyme inhibition assay (resazurin/diaphorase-coupled fluorescence); format: biochemical
T2 sequence (P54687 1-386): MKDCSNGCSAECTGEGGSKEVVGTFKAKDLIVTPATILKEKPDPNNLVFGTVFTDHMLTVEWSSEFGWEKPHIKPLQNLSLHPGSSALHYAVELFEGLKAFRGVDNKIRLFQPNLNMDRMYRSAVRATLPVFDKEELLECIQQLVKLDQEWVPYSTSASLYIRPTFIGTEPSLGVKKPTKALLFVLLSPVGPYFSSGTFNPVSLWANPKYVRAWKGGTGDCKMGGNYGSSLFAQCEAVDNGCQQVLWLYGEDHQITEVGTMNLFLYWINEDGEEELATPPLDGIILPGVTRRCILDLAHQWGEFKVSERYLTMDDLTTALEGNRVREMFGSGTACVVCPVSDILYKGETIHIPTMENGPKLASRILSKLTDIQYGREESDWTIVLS
In short: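 Human BCAT1 activity read by resazurin/diaphorase-coupled fluorescence. Compounds added from 50× DMSO stocks at 1:50, giving 10-point 3-fold titrations from 100 μM top final concentration. Run in technical duplicate; repeat tests averaged.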

[3] = target: T1, BCAT2; assay: BCAT2 in vitro cell inhibition using engineered A549 cells (KMV cell assay, 13C6-KMV by LC-MS/MS); format: cell-based; design: The result was an engineered A549 cell line that expressed endogenous BCAT2; endogenous in cells; host or cells: A549 cells with MUT and BCAT1 knocked out by CRISPR/CAS9

Compound | IC50 [1] | IC50 [2] | IC50 [3]
CC(C)(C)Cc1nc2cnc(-c3ccccn3)cc2n1[C@@H]1CCC[C@H](NC(=O)c2ncc(Cl)s2)[C@H]1O [Example 389, 5-chloro-N-((1S,2R,3R)-2-hydroxy-3-(2-neopentyl-6-(pyridin-2-yl)-1H-imidazo[4,5-c]pyridin-1-yl)cyclohexyl)thiazole-2-carboxamide] | ≤ 100 nM | < 500 nM | ≤ 100 nM
O=C(N[C@H]1CCC[C@@H](n2c(-c3ccccc3F)nc3cnc(-c4nc[nH]n4)cc32)[C@@H]1O)c1ncc(Cl)s1 [Example 400, 5-chloro-N-((1S,2R,3R)-3-(2-(2-fluorophenyl)-6-(1H-1,2,4-triazol-3-yl)-1H-imidazo[4,5-c]pyridin-1-yl)-2-hydroxycyclohexyl)thiazole-2-carboxamide] | ≤ 100 nM | < 500 nM | ≤ 100 nM
CC(C)Cc1nc2cnc(-c3nc[nH]n3)cc2n1[C@@H]1CCC[C@H](NC(=O)c2ccc(Cl)s2)[C@H]1O [Example 401, 5-chloro-N-((1S,2R,3R)-2-hydroxy-3-(2-isobutyl-6-(1H-1,2,4-triazol-3-yl)-1H-imidazo[4,5-c]pyridin-1-yl)cyclohexyl)thiophene-2-carboxamide] | ≤ 100 nM | < 500 nM | ≤ 100 nM
COc1cccc(F)c1-c1nc2cnc(-c3nc[nH]n3)cc2n1[C@@H]1CCCC[C@H](NC(=O)c2ccc(Cl)s2)[C@H]1O [Example 407, 5-chloro-N-((1S,2R,3R)-3-(2-(2-fluoro-6-methoxyphenyl)-6-(1H-1,2,4-triazol-3-yl)-1H-imidazo[4,5-c]pyridin-1-yl)-2-hydroxycycloheptyl)thiophene-2-carboxamide] | ≤ 100 nM | < 500 nM | ≤ 100 nM
CO[C@H]1C[C@H](NC(=O)c2ncc(Cl)s2)C[C@H](n2c(CC(C)C)nc3cnc(-n4nccn4)cc32)C1 [Example 421, 5-chloro-N-((1R,3S,5S)-3-(2-isobutyl-6-(2H-1,2,3-triazol-2-yl)-1H-imidazo[4,5-c]pyridin-1-yl)-5-methoxycyclohexyl)thiazole-2-carboxamide] | ≤ 100 nM | 500 to 1000 nM | 100 to 500 nM
CO[C@H]1C[C@H](NC(=O)c2ncc(Cl)s2)C[C@H](n2c(CC(C)C)nc3cnc(-c4ncccn4)cc32)C1 [Example 435, 5-chloro-N-((1R,3S,5S)-3-(2-isobutyl-6-(pyrimidin-2-yl)-1H-imidazo[4,5-c]pyridin-1-yl)-5-methoxycyclohexyl)thiazole-2-carboxamide] | ≤ 100 nM | < 500 nM | ≤ 100 nM
CS(=O)(=O)N1C[C@H](NC(=O)c2ccc(Cl)s2)C[C@H](n2c(-c3ccccc3F)nc3cnc(-c4nc[nH]n4)cc32)C1 [Example 458, 5-chloro-N-((3R,5S)-5-(2-(2-fluorophenyl)-6-(1H-1,2,4-triazol-3-yl)-1H-imidazo[4,5-c]pyridin-1-yl)-1-(methylsulfonyl)piperidin-3-yl)thiophene-2-carboxamide] | ≤ 100 nM | < 500 nM | ≤ 100 nM

More lines, now with the values ahead:

IC50 [1] | IC50 [2] | IC50 [3] | Compound
100 to 500 nM | 1000 to 5000 nM | > 1000 nM | CC(C)Cc1nc2cnc(-c3cccc(C#N)n3)cc2n1[C@@H]1CCC[C@H](NC(=O)c2ncc(Cl)s2)[C@H]1O [Example 392, 5-chloro-N-((1S,2R,3R)-3-(6-(6-cyanopyridin-2-yl)-2-isobutyl-1H-imidazo[4,5-c]pyridin-1-yl)-2-hydroxycyclohexyl)thiazole-2-carboxamide]
≤ 100 nM | < 500 nM | ≤ 100 nM | CC(C)Cc1nc2cnc(-n3nccn3)cc2n1[C@@H]1CCC[C@H](NC(=O)c2ccc(Cl)s2)[C@H]1O [Example 393, 5-chloro-N-((1S,2R,3R)-2-hydroxy-3-(2-isobutyl-6-(2H-1,2,3-triazol-2-yl)-1H-imidazo[4,5-c]pyridin-1-yl)cyclohexyl)thiophene-2-carboxamide]
≤ 100 nM | < 500 nM | ≤ 100 nM | O=C(N[C@H]1CCC[C@@H](n2c(-c3ccccc3F)nc3cnc(-c4nc[nH]n4)cc32)[C@@H]1O)c1ccc(Cl)s1 [Example 399, 5-chloro-N-((1S,2R,3R)-3-(2-(2-fluorophenyl)-6-(1H-1,2,4-triazol-3-yl)-1H-imidazo[4,5-c]pyridin-1-yl)-2-hydroxycyclohexyl)thiophene-2-carboxamide]
≤ 100 nM | < 500 nM | ≤ 100 nM | O=C(NC1CCCCC(n2c(-c3ccccc3F)nc3cnc(-c4nc[nH]n4)cc32)C1O)c1ncc(Cl)s1 (stereo not drawn) [Example 402, 5-chloro-N-((2-(2-fluorophenyl)-6-(1H-1,2,4-triazol-3-yl)-1H-imidazo[4,5-c]pyridin-1-yl)-2-hydroxycycloheptyl)thiazole-2-carboxamide]
≤ 100 nM | < 500 nM | 100 to 500 nM | O=C(NC1CCCCC(n2c(-c3c(O)cccc3F)nc3cnc(-c4nc[nH]n4)cc32)C1O)c1ccc(Cl)s1 (stereo not drawn) [Example 403, 5-chloro-N-(3-(2-(2-fluoro-6-hydroxyphenyl)-6-(1H-1,2,4-triazol-3-yl)-1H-imidazo[4,5-c]pyridin-1-yl)-2-hydroxycycloheptyl)thiophene-2-carboxamide]
≤ 100 nM | < 500 nM | ≤ 100 nM | O=C(N[C@H]1CCCC[C@@H](n2c(-c3ccccc3F)nc3cnc(-c4nc[nH]n4)cc32)[C@@H]1O)c1ccc(Cl)s1 [Example 405, 5-chloro-N-((1S,2R,3R)-3-(2-(2-fluorophenyl)-6-(1H-1,2,4-triazol-3-yl)-1H-imidazo[4,5-c]pyridin-1-yl)-2-hydroxycycloheptyl)thiophene-2-carboxamide]
≤ 100 nM | 500 to 1000 nM | 100 to 500 nM | CO[C@H]1C[C@H](NC(=O)c2ncc(Cl)s2)C[C@H](n2c(CC(C)C)nc3cnc(-c4nc(C)co4)cc32)C1 [Example 409, 5-chloro-N-((1R,3S,5S)-3-(2-isobutyl-6-(4-methyloxazol-2-yl)-1H-imidazo[4,5-c]pyridin-1-yl)-5-methoxycyclohexyl)thiazole-2-carboxamide]
100 to 500 nM | 1000 to 5000 nM | > 1000 nM | CO[C@H]1C[C@H](NC(=O)c2ncc(Cl)s2)C[C@H](n2c(CC(C)C)nc3cnc(-n4cncn4)cc32)C1 [Example 417, 5-chloro-N-((1R,3S,5S)-3-(2-isobutyl-6-(1H-1,2,4-triazol-1-yl)-1H-imidazo[4,5-c]pyridin-1-yl)-5-methoxycyclohexyl)thiazole-2-carboxamide]
≤ 100 nM | 500 to 1000 nM | ≤ 100 nM | CO[C@H]1C[C@H](NC(=O)c2ncc(Cl)s2)C[C@H](n2c(-c3ccccc3F)nc3cnc(N4CCC[C@H]4CO)cc32)C1 [Example 429, 5-chloro-N-((1R,3S,5S)-3-(2-(2-fluorophenyl)-6-((S)-2-(hydroxymethyl)pyrrolidin-1-yl)-1H-imidazo[4,5-c]pyridin-1-yl)-5-methoxycyclohexyl)thiazole-2-carboxamide]
≤ 100 nM | < 500 nM | > 1000 nM | O=C(N[C@@H]1C[C@H](n2c(-c3ccccc3F)nc3cnc(-c4nc[nH]n4)cc32)CS(=O)(=O)C1)c1ccc(Cl)s1 [Example 456, 5-chloro-N-((3R,5S)-5-(2-(2-fluorophenyl)-6-(1H-1,2,4-triazol-3-yl)-1H-imidazo[4,5-c]pyridin-1-yl)-1,1-dioxidotetrahydro-2H-thiopyran-3-yl)thiophene-2-carboxamide]
≤ 100 nM | < 500 nM | ≤ 100 nM | CS(=O)(=O)N1C[C@H](NC(=O)c2ncc(Cl)s2)C[C@H](n2c(-c3ccccc3F)nc3cnc(-c4nc[nH]n4)cc32)C1 [Example 460, 5-chloro-N-((3R,5S)-5-(2-(2-fluorophenyl)-6-(1H-1,2,4-triazol-3-yl)-1H-imidazo[4,5-c]pyridin-1-yl)-1-(methylsulfonyl)piperidin-3-yl)thiazole-2-carboxamide]
